Assay results reported in patent publication US20090024021A1, “Methods and Systems for Using Transcranial Magnetic Stimulation and Functional Brain Mapping for Examining Cortical Sensitivity, Brain Communication, and Effects of Medication” (priority 2002, published 2009).
Values joined by “and” are separate entries in the source; they are usually repeats but may differ in a detail not shown here. Equal values may be shown once.

Columns and labels:
[1] = test system: left primary motor cortex; experiment: Resting motor threshold (RMT) by TMS with EMG of abductor pollicis brevis; type: in vivo, human
Protocol: Study design: We performed a randomized, double-blind, crossover trial involving two visits at least one week apart (FIG. 8). […] Serum LTG levels, RMTs, and interleaved TMS/phMRI images during both motor and then prefrontal TMS were then gathered for each subject. One week later they received LTG or placebo again, followed by identical RMT and interleaved TMS/phMRI studies.
General Procedure: After arriving at the laboratory in the early afternoon, baseline RMT was determined and baseline plasma levels of LTG were drawn. They were then given a single oral dose of 325 mg LTG or placebo. They then waited quietly for 3 hours. Three hours after taking the oral pill, RMT was determined and serum plasma levels were again drawn.
TMS: Focal TMS was delivered by a MAGSTIM Super Rapid stimulator (Magstim Co, Whitland, Dyfed, U.K) and applied through a focal figure-of-eight magnetic coil (each wing 70 mm in diameter). The optimal position of the magnetic coil for eliciting a MEP in the right abductor pollicis brevis (APB) was determined by holding the coil tangential to the scalp, and moving it in small steps over the presumed area of the left primary motor cortex at a slightly suprathreshold stimulus intensity. The coil was always held horizontally with the handle pointing backward and laterally at 45 degrees from the midline. This position was marked with a pen on a reusable latex swimming cap in order to assure constant placement of the coil throughout the visits. Stimulus intensity and threshold values were expressed as percent of the maximal stimulator output.
Resting Motor Threshold (RMT): Surface electromyographic (EMG) was recorded from the APB using 9-mm Ag—AgCl electrodes in a belly-tendon montage. The placement of electrodes on the thumb and hand was marked with a pen for exact re-placement in consecutive visits on the same day. The raw EMG signal was amplified by a factor of 100 gain and band-pass filtered, […] with a High Performance Band pass Filter Model V-7548 (LAB Linc. Co). The EMG was recorded on a G3 Macintosh with MacCRO (version 2.1).
RMT was determined in the resting APB in 4 steps: In step one and step three, thresholds were approached from a slightly suprathreshold intensity by reducing the stimulus intensity in 1% steps with a 5 sec interval between pulses, whereas in steps two and four, thresholds were approached from a slightly subthreshold intensity by increasing the stimulus intensity. RMT was defined as the first intensity that produced a MEP of greater than 50 μV in 3 out of 6 trials in the resting target muscle. A mean RMT for baseline or after medication was calculated by averaging the four values. Determination of the RMT using this technique usually lasted 30 minutes.
The percent change of RMT=100[(post-dose RMT−pre-dose RMT)/pre-dose RMT]. Paired Student's t tests (two tailed) were performed for the percent change of RMT between LTG and placebo. Wilcoxon nonparametric tests were performed for the number of active voxels in the region of interests (ROI) between LTG and placebo. We performed Pearson correlations between the percent change of RMT and the change of active voxel number. Two-way analysis of variance (ANOVA) was performed for % BOLD signal change in the different intensity stimulation and the different medication conditions. All statistical analyses were performed using SPSS 10.0 (Statistical Product and Service Solutions Inc, Chicago Ill.).

[2] = test system: motor corticospinal pathways; conditions: volunteers or patients with complex partial seizures; cited from earlier work

**Q.** What does the source list for `Nc1nnc(-c2cccc(Cl)c2Cl)c(N)n1` [LTG, Lamotrigine]?
**A.** RMT Post-3 hours ([1]; LTG visit, 3 hours after single oral dose of 325 mg LTG, individual subjects 1-12): 75.25% of machine maximum output (Magstim) and 66.25% of machine maximum output (Magstim) and 66.50% of machine maximum output (Magstim) and 99.00% of machine maximum output (Magstim) and 55.25% of machine maximum output (Magstim) and 100.00% of machine maximum output (Magstim) (2×) and 101.00% of machine maximum output (Magstim) (2×) and 64.50% of machine maximum output (Magstim) and 68.25% of machine maximum output (Magstim) and 95.25% of machine maximum output (Magstim); RMT Post-3 hours, mean ([1]; LTG visit, 3 hours after single oral dose of 325 mg LTG, mean of 12 subjects): 82.69% of machine maximum output (Magstim); RMT % Change from baseline ([1]; LTG visit, post-dose 3 hours vs pre-dose same day, individual subjects 1-12): 8.27% and 28.02% and 7.26% and 30.26% and 1.38% and 3.63% and 26.10% and 19.53% and 8.86% and 15.76% and 12.81% and 16.87%; RMT % Change from baseline, mean ([1]; LTG visit, post-dose 3 hours vs same day baseline, mean of 12 subjects, placebo 0.6%): 14.9%; TMS resting motor threshold compared with placebo ([1]; all 12 subjects, day subjects received LTG): significant increase; resting motor threshold (RMT) [2]: significantly increased
